In US20100093531A1 (priority 2007, published 2010):
Read-outs that look alike come from different tables or passages of the source.

Legend:
Phakopsora pachyrhizi = experiment: Curative control of soy bean rust on soy beans caused by Phakopsora pachyrhizi (greenhouse); assay type: in vivo; settings: individual active compound, 14 days
Experimental: (§1) Preparation: The spray solutions were prepared in several steps:
(§2) A stock solution was prepared: a mixture of acetone and/or DMSO and the wetting agent/emulsifier Uniperol, which is based on ethoxylated alkylphenoles, in a relation (volume) solvent-emulsifier of 99 to 1 was added to 25 mg of the compound to give a total of 10 ml. Water was then added to total volume of 100 ml.
(§3) This stock solution was diluted with the described solvent-emulsifier-water mixture to the given concentration.
Leaves of pot-grown soy bean seedlings were inoculated with spores of Phakopsora pachyrhizi. To ensure the success the artificial inoculation, the plants were transferred to a humid chamber with a relative humidity of about 95% and 23 to 27° C. for 24 h. The next day the plants were sprayed to run-off with an aqueous suspension, containing the concentration of active ingredient as described below. The plants were allowed to air-dry. Then the trial plants were cultivated for 14 days in a greenhouse chamber at 23-27° C. and a relative humidity between 60 and 80%. The extent of fungal attack on the leaves was visually assessed as % diseased leaf area.
(§4) Evaluation was carried out analogously to example 1.

Phytophthora infestans [1] = experiment: microbe, parasite or virus in culture; assay type: cell-based; settings: for Efficacy in % of the untreated control: individual active compound, microtiter test, day 7
Plasmopara viticola = experiment: Fungicidal control of grape downy mildew caused by Plasmopara viticola (greenhouse); assay type: in vivo; settings: individual active compound
Experimental: as §1, §2, §3
Grape cuttings were grown in pots to the 4 to 5 leaf stage. These plants were sprayed to run-off with an aqueous suspension, containing the concentration of active ingredient or their mixture mentioned in the table below. The plants were allowed to air-dry. The next day they were inoculated with an aqueous spore suspension of Plasmopara viticola by spraying it at the lower leaf-side. Then the trial plants were immediately transferred for 24 h to a humid chamber with 22-24° C. and a relative humidity close to 100%. For a period of 5 days, cultivation followed in a greenhouse at 20-25° C. and a relative humidity about 50-80%. To stimulate the outbreak of the disease symptoms, the plants were transferred to a humid chamber again for 24 hours. Then the extent of fungal attack on the lower leaf surface was visually assessed as % diseased leaf area.
as §4

Phytophthora infestans [2] = assay type: in vivo; settings: individual active compound, tomato, 6 days after inoculation
Botrytis cinerea = experiment: Preventative control of grey mold (Botrytis cinerea) on leaves of green pepper (greenhouse); assay type: in vivo; settings: individual active compound, 5 days after inoculation
Experimental: as §1, §2, §3
Young seedlings of green pepper were grown in pots to the 2 to 3 leaf stage. These plants were sprayed to run-off with an aqueous suspension, containing the concentration of active ingredient or their mixture mentioned in the table below. The next day the treated plants were inoculated with a spore suspension of Botrytis cinerea in a 2% aqueous biomalt solution. Then the trial plants were immediately transferred to a dark, humid chamber. After 5 days at 22 to 24° C. and a relative humidity close to 100% the extent of fungal attack on the leaves was visually assessed as % diseased leaf area.
as §4

Septoria tritici = experiment: Activity against Septoria tritici in the microtiter test; assay type: cell-based; settings: individual active compound, day 7
[3] = Phytophthora infestans, 168 h, read-out: Efficacy in % of the untreated control

## CCNC(=NNc1c(Cl)cc(C(F)(F)F)cc1Cl)C1(C)CC1(Cl)Cl (stereo not drawn) [A.23-1, N-R′-2,2-dihalo-1-R″cyclo-propanecarboxamide-2-(2,6-dichloro-α,α,α-fluoro-p-tolyl)hydrazone, wherein R′ is ethyl, halo is chloro, and R″ is methyl]
Phakopsora pachyrhizi; 63 ppm in the spray liquor
  Efficacy in % of the untreated control: 0%
Phytophthora infestans [1]; 1 ppm
  Efficacy in % of the untreated control: 10%
Phytophthora infestans [1]; 4 ppm
  Efficacy in % of the untreated control: 15%
Phytophthora infestans [1]; 16 ppm
  Efficacy in % of the untreated control: 15%

## C/C(=N\C#N)N(C)Cc1ccc(Cl)nc1 [Acetamipyrid]
Plasmopara viticola; 16 ppm in the spray liquor
  Efficacy in % of the untreated control: 0%
Phytophthora infestans [1]; 4 ppm
  Efficacy in % of the untreated control: 7%
Phytophthora infestans [1]; 16 ppm
  Efficacy in % of the untreated control: 9%

## CNC(=O)Oc1cccc2c1OC(C)(C)C2 [Carbofuran, reference compound]
Phytophthora infestans [2]; 16 ppm in the spray liquor
  Efficacy in % of the untreated control: 0%
Phakopsora pachyrhizi; 16 ppm in the spray liquor
  Efficacy in % of the untreated control: 0%
Phytophthora infestans [1]; [3]
  inhibition of growth at 1 ppm: 6%
  inhibition of growth at 4 ppm: 8%
  inhibition of growth at 16 ppm: 12%

## CN/C(=N\[N+](=O)[O-])NCc1cnc(Cl)s1 [Clothianidin]
Phytophthora infestans [1]; [3]
  inhibition of growth at 1 ppm: 2%
  inhibition of growth at 4 ppm: 2%
  inhibition of growth at 16 ppm: 11%

## N#Cc1nn(-c2c(Cl)cc(C(F)(F)F)cc2Cl)c(N)c1[S+]([O-])C(F)(F)F (stereo not drawn) [Fipronil, reference compound]
Phytophthora infestans [2]; 16 ppm in the spray liquor
  Efficacy in % of the untreated control: 0%
Phytophthora infestans [2]; 63 ppm in the spray liquor
  Efficacy in % of the untreated control: 0%
Plasmopara viticola; 16 ppm in the spray liquor
  Efficacy in % of the untreated control: 0%
Botrytis cinerea; 63 ppm in the spray liquor
  Efficacy in % of the untreated control: 10%
Phytophthora infestans [1]; [3]
  inhibition of growth at 1 ppm: 1%
  inhibition of growth at 4 ppm: 16%
  inhibition of growth at 16 ppm: 20%

## O=[N+]([O-])NC1=NCCN1Cc1ccc(Cl)nc1 [Imidacloprid, reference compound]
Phytophthora infestans [2]; 16 ppm in the spray liquor
  Efficacy in % of the untreated control: 22%
Phytophthora infestans [1]; [3]
  inhibition of growth at 1 ppm: 5%
  inhibition of growth at 4 ppm: 6%
  inhibition of growth at 16 ppm: 11%

## N#Cc1ccc(C/C(=N\NC(=O)Nc2ccc(OC(F)(F)F)cc2)c2cccc(C(F)(F)F)c2)cc1 [Metaflumizon]
Plasmopara viticola; 16 ppm in the spray liquor
  Efficacy in % of the untreated control: 0%
Phytophthora infestans [1]; 4 ppm
  Efficacy in % of the untreated control: 6%
Phytophthora infestans [1]; 16 ppm
  Efficacy in % of the untreated control: 12%
Septoria tritici; 63 ppm
  Efficacy in % of the untreated control: 0%

## CCc1nc2ncnn2c(N)c1CCC(C)CC(C)(C)C (stereo not drawn) [Tab. 1, # I-113, 5-ethyl-6-(3,5,5-trimethylhexyl)[1,2,4]triazolo[1,5-a]pyrimidin-7-ylamine]
Phytophthora infestans [2]; 4 ppm in the spray liquor
  Efficacy in % of the untreated control: 22%
Phytophthora infestans [1]; [3]
  inhibition of growth at 4 ppm: 11%

## CCCCCCCCc1c(COC)nc2ncnn2c1N [Tab. 1, # I-245, 5-methoxymethyl-6-octyl-[1,2,4]triazolo[1,5-a]pyrimidin-7-ylamine]
Phytophthora infestans [2]; 16 ppm in the spray liquor
  Efficacy in % of the untreated control: 0%
Phakopsora pachyrhizi; 4 ppm in the spray liquor
  Efficacy in % of the untreated control: 0%
Phakopsora pachyrhizi; 16 ppm in the spray liquor
  Efficacy in % of the untreated control: 0%
Phytophthora infestans [1]; [3]
  inhibition of growth at 0.25 ppm: 10%
Septoria tritici; 16 ppm
  Efficacy in % of the untreated control: 4%

## CCCCCCCCc1nc2ncnn2c(N)c1CC [Tab. 1, # I-290, 6-ethyl-5-octyl-[1,2,4]triazolo[1,5-a]pyrimidin-7-ylamine]
Plasmopara viticola; 4 ppm in the spray liquor
  Efficacy in % of the untreated control: 0%
Plasmopara viticola; 16 ppm in the spray liquor
  Efficacy in % of the untreated control: 56%
Botrytis cinerea; 16 ppm in the spray liquor
  Efficacy in % of the untreated control: 0%

## Cc1nc2ncnn2c(N)c1-c1ccc(Cl)c(Cl)c1 [Tab. 1, I-9, 6-(3,4-dichlorophenyl)-5-methyl-[1,2,4]triazolo[1,5-a]pyrimidin-7-ylamine]
Plasmopara viticola; 4 ppm in the spray liquor
  Efficacy in % of the untreated control: 0%
Phytophthora infestans [1]; [3]
  inhibition of growth at 1 ppm: 64%
Septoria tritici; 16 ppm
  Efficacy in % of the untreated control: 12%

## CCCCCCCCc1c(CC)nc2ncnn2c1N [Tab. 1, I-110, 5-ethyl-6-octyl-[1,2,4]triazolo[1,5-a]pyrimidin-7-ylamine]
Phytophthora infestans [1]; [3]
  inhibition of growth at 1 ppm: 7%

## CC1(C)C(C=C(Cl)Cl)C1C(=O)OC(C#N)c1cccc(Oc2ccccc2)c1 (stereo not drawn) [alpha-Cypermethrin]
Phytophthora infestans [1]; [3]
  inhibition of growth at 4 ppm: 7%
  inhibition of growth at 16 ppm: 9%

## CC1(C)C(C=C(Cl)Cl)C1C(=O)OC(C#N)c1cccc(Oc2ccccc2)c1 (stereo not drawn) [α-Cypermethrin]
Septoria tritici; 63 ppm
  Efficacy in % of the untreated control: 9%

## CC1(C)C(C=C(Cl)Cl)C1C(=O)OC(C#N)c1cccc(Oc2ccccc2)c1 (stereo not drawn) [α-Cypermetrin]
Plasmopara viticola; 63 ppm in the spray liquor
  Efficacy in % of the untreated control: 0%
